Source: US8642516B2, “Chemically-defined arrays for screening cell-substrate interactions” (Wisconsin Alumni Research Foundation, priority 2012, dated 2014)

Columns and labels:
Type in all cases: cell-based, human
HUVEC [1] = test: HUVEC proliferation (Click-it EdU) in response to soluble morphogens on SAM arrays; conditions: increased immobilized GRGDSP density
Protocol: Specifically, SAM array spots presenting mixed ligands were prepared as described above. SAM arrays presenting varied ligand densities of covalently immobilized VEGF receptor-binding peptide ([sequence], here referred to as “VR-BP”; SEQ ID NO:17) and varied ligand densities of the fibronectin-derived cell adhesion peptide (GRGDSP, SEQ ID NO:18) were used to probe for changes in HUVEC attachment, proliferation and tubulogenesis. Control over individual ligand density was achieved by mixing scrambled VR-BP and mutant GRGESP (SEQ ID NO:19) with functional VR-BP or GRGDSP (SEQ ID NO:18) peptides, respectively. Therefore, in a typical SAM array, SAMs were locally formed within spots using an alkanethiolate mixture of 94% HS—C11-EG3-OH and 6% HS—C11-EG6-COOH to create substrates with a total of 6% carboxylate groups for peptide conjugation. Next, to create a spot presenting 5% GRGDSP (SEQ ID NO:18) and 1% VR-BP, a 300 μM peptide solution with 250 μM GRGDSP (SEQ ID NO:18) and 50 μM VR-BP was used during peptide conjugation. Likewise, to create a spot presenting 2.5% GRGDSP (SEQ ID NO:18) and 0.1% VR-BP, a 300 μM peptide solution with 125 μM GRGDSP (SEQ ID NO:18), 125 μM GRGESP (SEQ ID NO:19), 5 μM VR-BP and 45 μM scrambled peptide was used during peptide conjugation. In this manner, the amount of active ligand could be varied between spots while holding the total ligand content constant.
Passage 2 HUVECs were expanded at low cell density (less than 70% confluence) on tissue culture polystyrene to no more than 14 population doublings. During HUVEC expansion, cells were cultured in medium 199 (m199, Mediatech, Manassas, Va.) containing 1% penicillin/streptomycin (Hyclone, Logan, Utah) and supplemented with Clonetics EGM-2 BullitKit (Lonza Walkersville, Inc., Walkersville, Md.) containing Hydrocortisone, hFGF-B, VEGF, R3-IGF-1, Ascorbic Acid, Heparin, FBS, hEGF, GA-1000 growth supplements. […]

HUVEC [2] = test: HUVEC proliferation (normalized cell number C72/C0) on SAM array spots presenting GRGDSP; conditions: HUVECs, 72 hours
Protocol: (§1) For cell assays on SAM arrays, HUVECs or hMSCs were removed from plastic culture plates using a 0.05% trypsin solution, resuspended in media, and seeded onto SAM arrays in sterile polystyrene Petri dishes. After allowing cells to attach for ˜1 hour in a humidified incubator at 37° C. and 5% CO2, arrays were dipped in warm media to remove loosely attached cells and then transferred to a rectangular multidish (Thermo Scientific/Nunc, Rochester, N.Y.) with warm media and imaged ˜4 hours later serving as “0 hr.” For the initial time point and subsequent time-lapse imaging, arrays were placed on an incubated stage and each array spot was imaged every 15 minutes for 72 hours. […]
(§2) Relative cell attachment at 0 hrs was quantified by counting the number of attached cells per spot and normalizing cell numbers to maximal attachment conditions. Normalized cell number was calculated by dividing the number of cells per spot at 72 hours (C72) to the cell number observed on the same spot at 0 hrs (C0). Relative proliferation was determined by dividing normalized cell numbers at 72 hours by the maximum average normalized cell number observed across GRGDSP density conditions. Similarly, relative spreading was determined by dividing projected cell areas to the maximum average projected cell area observed across GRGDSP density conditions. […]

hMSC [3] = test: hMSC proliferation (normalized cell number C72/C0) on SAM array spots presenting GRGDSP; conditions: hMSCs, 72 hours
Protocol: as §1, §2

hMSC [4] = test: hMSC migration (single cell tracking) on SAM array spots presenting GRGDSP; conditions: hMSCs, each ligand density condition (0.06%-5%)
Protocol: as §1, §2

HUVEC [5] = test: HUVEC migration (single cell tracking) on SAM array spots presenting GRGDSP; conditions: HUVECs
Protocol: as §1, §2

HUVEC [6] = test: HUVEC spreading (projected cell area) on SAM array spots presenting GRGDSP
Protocol: For cell assays on SAM arrays, HUVECs or hMSCs were removed from plastic culture plates using a 0.05% trypsin solution, resuspended in media, and seeded onto SAM arrays in sterile polystyrene Petri dishes. After allowing cells to attach for ˜1 hour in a humidified incubator at 37° C. and 5% CO2, arrays were dipped in warm media to remove loosely attached cells and then transferred to a rectangular multidish (Thermo Scientific/Nunc, Rochester, N.Y.) with warm media and imaged ˜4 hours later serving as “0 hr.” For the initial time point and subsequent time-lapse imaging, arrays were placed on an incubated stage and each array spot was imaged every 15 minutes for 72 hours. Furthermore, it is important to point out that all cell experiments for comparison between HUVECs and hMSCs were run simultaneously.
For immunocytochemistry, at 24 and 72 hour time points during the time-lapse experiment, staining for the actin cytoskeleton and focal adhesion markers was performed as directed by the manufacturer (Catalog No. FAK100, Millipore, Billerica, Mass.). […]
Relative cell attachment at 0 hrs was quantified by counting the number of attached cells per spot and normalizing cell numbers to maximal attachment conditions. Normalized cell number was calculated by dividing the number of cells per spot at 72 hours (C72) to the cell number observed on the same spot at 0 hrs (C0). Relative proliferation was determined by dividing normalized cell numbers at 72 hours by the maximum average normalized cell number observed across GRGDSP density conditions. Similarly, relative spreading was determined by dividing projected cell areas to the maximum average projected cell area observed across GRGDSP density conditions. […] For each spot, average cell projected area was calculated by dividing the thresholded actin staining (red channel) by the total number of nuclei in the same spot. […]
Specifically, SAM arrays were prepared as described above. […] Cell spreading was determined by culturing HUVECs and hMSCs for 24 hours and 72 hours and analyzed by cell staining and quantified by measuring projected cell area. […]

GRGDSP
HUVEC proliferation dependence on ligand density (HUVEC [1]): increased proliferation
maximum normalized cell number (C72/C0) (HUVEC [2]; across GRGDSP densities): 1.6
proliferation (HUVEC [2]; below 0.06% GRGDSP): no proliferation
maximum normalized cell number (C72/C0) (hMSC [3]; across GRGDSP densities): 6.1
proliferation (hMSC [3]; below 0.06% GRGDSP): no proliferation
fraction of migrating cells (hMSC [4]): greater than 37%
fraction of migrating cells (HUVEC [5]; high GRGDSP densities): virtually no cells migrating
fraction of migrating cells (HUVEC [5]; lower GRGDSP densities): over 30%
maximal HUVEC spreading (projected cell area) (HUVEC [6]; 72 hours, SAM spots with 1.67% and 5% GRGDSP): 6000 μm^2
maximal projected cell area (HUVEC [6]; HUVECs, 24 hrs, SAM spots with 1.6% and 5% GRGDSP): greater than 4000 μm^2
change in projected cell area from 24 to 72 hrs (HUVEC [6]; HUVECs, all GRGDSP densities above 0.06%): increasing their projected cell area
